In this assay the target is T1, Androgen receptor (Homo sapiens, UniProt P10275).
T1 sequence (P10275 whole entry): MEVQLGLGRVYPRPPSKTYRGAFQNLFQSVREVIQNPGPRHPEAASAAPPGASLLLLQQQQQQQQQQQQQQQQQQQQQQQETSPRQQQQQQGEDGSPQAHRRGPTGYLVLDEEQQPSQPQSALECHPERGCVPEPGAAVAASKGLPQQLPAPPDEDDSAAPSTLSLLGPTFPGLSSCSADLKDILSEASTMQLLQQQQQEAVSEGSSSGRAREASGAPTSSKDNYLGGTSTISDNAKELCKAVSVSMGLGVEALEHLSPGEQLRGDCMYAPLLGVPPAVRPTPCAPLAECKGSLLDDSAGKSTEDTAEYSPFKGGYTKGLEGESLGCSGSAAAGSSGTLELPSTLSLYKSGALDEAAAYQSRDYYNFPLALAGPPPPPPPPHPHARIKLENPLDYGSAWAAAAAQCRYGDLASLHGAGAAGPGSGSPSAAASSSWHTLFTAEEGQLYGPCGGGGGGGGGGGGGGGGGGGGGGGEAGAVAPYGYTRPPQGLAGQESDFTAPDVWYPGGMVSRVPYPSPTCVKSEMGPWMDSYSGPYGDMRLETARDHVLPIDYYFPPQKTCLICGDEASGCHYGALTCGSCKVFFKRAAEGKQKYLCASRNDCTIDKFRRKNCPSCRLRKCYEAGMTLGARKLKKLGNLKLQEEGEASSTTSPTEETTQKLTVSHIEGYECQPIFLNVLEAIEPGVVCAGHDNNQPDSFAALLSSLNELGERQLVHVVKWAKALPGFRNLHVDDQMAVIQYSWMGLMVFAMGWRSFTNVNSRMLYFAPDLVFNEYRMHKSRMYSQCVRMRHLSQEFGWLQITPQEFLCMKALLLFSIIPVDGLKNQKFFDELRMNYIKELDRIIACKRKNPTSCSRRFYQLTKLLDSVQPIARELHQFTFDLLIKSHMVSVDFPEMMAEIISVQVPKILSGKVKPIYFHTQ
Put plainly: Modulation of AR in human LNCAP cells transfected with PSA reporter gene assessed as inhibition of R1881-induced PSA luciferase activity pretreated for 1 hr followed by R1881 addition and measured after 24 hrs by luciferase assay. Format: cell-based. A general note: A reporter such as luciferase makes a cellular process visible.
A word on the IC50: it is the point on the concentration scale where inhibition reaches its midpoint. For `Cc1cnc(NS(C)(=O)=O)nc1COc1ccc(C(C)(C)c2cc(Cl)c(OCCCl)c(C#N)c2)cc1`, the IC50 is below 500 nM. The figure for `CC(C)(c1ccc(OCc2ncc(NS(C)(=O)=O)s2)cc1)c1cc(Cl)c(OCCCl)c(C#N)c1` is below 500 nM; for `CC(C)(c1ccc(OCc2cnc(NS(C)(=O)=O)nc2)cc1)c1cc(Cl)c(OCCCl)c(C#N)c1` it is below 500 nM; for `Cc1nc(NS(C)(=O)=O)nc(COc2ccc(C(C)(C)c3cc(Cl)c(OCCCl)c(C#N)c3)cc2)c1C` it is below 500 nM.

For the compound `CC(C)(c1ccc(OCc2ccnc(NS(C)(=O)=O)n2)cc1)c1cc(F)c(OCCCl)c(Cl)c1`, the IC50 was 500 nM. As to `CSc1nc(C)c(COc2ccc(C(C)(C)c3cc(Cl)c(OCCCl)c(C#N)c3)cc2)o1`, the IC50 is below 500 nM. In the case of `CC(C)S(=O)(=O)Nc1nc(COc2ccc(C(C)(C)c3cc(Cl)c(OCCCl)c(C#N)c3)cc2)co1`, the IC50 stood at 500 nM. The figure for `CC(C)(c1ccc(OCc2nc(NS(C)(=O)=O)cs2)cc1)c1cc(Cl)c(OCCCl)c(C#N)c1` is below 500 nM; for `CC(C)(c1ccc(OCc2cnc(NS(C)(=O)=O)o2)cc1)c1cc(Cl)c(OCCCl)c(C#N)c1` it is below 500 nM. Consider `CC(C)(c1ccc(OCc2ccnc(NS(C)(=O)=O)n2)cc1)c1cc(Cl)c(OCCCl)c(Cl)c1`, for which the IC50 is below 500 nM. Consider `CC(C)(c1ccc(OCc2cnc(Cl)o2)cc1)c1cc(Cl)c(OCCCl)c(C#N)c1`, for which the half-inhibitory concentration (IC50) was below 500 nM. Consider `CC(C)S(=O)(=O)c1nc(COc2ccc(C(C)(C)c3cc(Cl)c(OCCCl)c(C#N)c3)cc2)co1`, for which the IC50 was below 500 nM.

Values taken from ChEMBL document CHEMBL4725453, “Modulation of Androgen Receptor for Therapeutic Application in Cancer and Viral Infection” (ACS Med Chem Lett, 2020).
